Source: patent US20260356819A1, “OXOISOINDOLINYL-SUBSTITUTED […] DERIVATIVE AND USE THEREOF” (GLUETACS THERAPEUTICS (SHANGHAI) CO., LTD., priority 2023, published 2026)

Assays:
Assay type in all cases: cell-based
Conditions in all cases: compounds at 50 nM and 500 nM
[1] = target: T1, IKZF1 (Homo sapiens, UniProt Q13422+Q96SW2); test: Western blot degradation of IKZF1 in hPBMCs (24 h)
T1 construct: The supernatant was aspirated as the extracted total cell protein; endogenous in cells; host or cells: human peripheral blood mononuclear cells (hPBMCs)
T1 sequence (Q13422 whole entry): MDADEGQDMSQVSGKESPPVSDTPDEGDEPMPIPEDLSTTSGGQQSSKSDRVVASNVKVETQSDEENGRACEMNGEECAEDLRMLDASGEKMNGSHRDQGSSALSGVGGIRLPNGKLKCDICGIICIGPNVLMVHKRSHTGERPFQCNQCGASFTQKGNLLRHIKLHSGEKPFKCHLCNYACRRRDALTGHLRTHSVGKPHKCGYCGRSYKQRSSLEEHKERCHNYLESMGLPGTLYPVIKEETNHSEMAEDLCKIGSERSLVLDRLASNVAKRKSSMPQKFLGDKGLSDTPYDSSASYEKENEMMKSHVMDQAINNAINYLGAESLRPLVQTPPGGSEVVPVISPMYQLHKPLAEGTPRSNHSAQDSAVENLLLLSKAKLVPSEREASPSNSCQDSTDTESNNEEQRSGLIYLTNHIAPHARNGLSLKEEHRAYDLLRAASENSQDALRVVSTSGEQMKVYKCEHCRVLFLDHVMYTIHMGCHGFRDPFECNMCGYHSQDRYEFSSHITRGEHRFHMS
T1 sequence (Q96SW2 whole entry): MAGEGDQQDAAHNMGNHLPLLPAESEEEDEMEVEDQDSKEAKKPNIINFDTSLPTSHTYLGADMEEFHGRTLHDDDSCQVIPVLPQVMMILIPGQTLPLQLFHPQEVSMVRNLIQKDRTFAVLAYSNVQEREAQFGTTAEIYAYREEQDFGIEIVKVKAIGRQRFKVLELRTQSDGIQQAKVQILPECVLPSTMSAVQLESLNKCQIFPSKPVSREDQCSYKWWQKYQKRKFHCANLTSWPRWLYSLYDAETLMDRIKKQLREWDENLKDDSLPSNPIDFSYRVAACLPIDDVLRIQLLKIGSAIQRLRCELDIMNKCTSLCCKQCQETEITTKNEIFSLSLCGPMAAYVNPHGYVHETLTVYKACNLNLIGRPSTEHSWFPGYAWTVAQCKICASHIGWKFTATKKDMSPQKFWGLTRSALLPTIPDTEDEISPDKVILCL
T1 sequence (Q16531 whole entry partner): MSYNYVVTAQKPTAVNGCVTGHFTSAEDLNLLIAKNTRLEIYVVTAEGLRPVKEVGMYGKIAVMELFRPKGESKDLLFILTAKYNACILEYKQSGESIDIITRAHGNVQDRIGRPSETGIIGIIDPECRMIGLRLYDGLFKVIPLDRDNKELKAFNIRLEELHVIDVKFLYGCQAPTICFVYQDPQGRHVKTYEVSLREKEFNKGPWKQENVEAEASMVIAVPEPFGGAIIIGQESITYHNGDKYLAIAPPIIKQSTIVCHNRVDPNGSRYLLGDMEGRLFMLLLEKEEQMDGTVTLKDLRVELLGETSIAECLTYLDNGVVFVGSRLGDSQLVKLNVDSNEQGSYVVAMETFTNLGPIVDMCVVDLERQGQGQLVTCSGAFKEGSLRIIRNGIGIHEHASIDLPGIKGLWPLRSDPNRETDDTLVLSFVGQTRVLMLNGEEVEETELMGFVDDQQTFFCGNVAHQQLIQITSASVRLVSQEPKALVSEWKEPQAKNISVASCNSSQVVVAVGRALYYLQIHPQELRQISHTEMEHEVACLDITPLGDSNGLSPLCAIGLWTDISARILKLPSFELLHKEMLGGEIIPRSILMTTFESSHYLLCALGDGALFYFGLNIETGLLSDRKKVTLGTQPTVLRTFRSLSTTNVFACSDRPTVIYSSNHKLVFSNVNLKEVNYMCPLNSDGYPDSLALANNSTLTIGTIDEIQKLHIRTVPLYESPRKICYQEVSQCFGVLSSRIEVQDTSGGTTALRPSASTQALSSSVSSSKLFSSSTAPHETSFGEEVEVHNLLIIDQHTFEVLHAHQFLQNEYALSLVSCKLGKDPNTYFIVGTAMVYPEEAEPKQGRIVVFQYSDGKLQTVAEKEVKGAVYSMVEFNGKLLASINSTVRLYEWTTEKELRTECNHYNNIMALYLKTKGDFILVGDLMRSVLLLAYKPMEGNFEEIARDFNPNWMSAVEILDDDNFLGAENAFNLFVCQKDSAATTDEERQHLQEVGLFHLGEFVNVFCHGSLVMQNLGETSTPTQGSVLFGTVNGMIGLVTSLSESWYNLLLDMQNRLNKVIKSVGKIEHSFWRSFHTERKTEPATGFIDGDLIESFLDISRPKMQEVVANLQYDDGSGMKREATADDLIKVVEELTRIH
Method in brief: (§1)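 Read-out is Western blot band grayscale, divided by internal control band and normalised to give percent target protein remaining; degradation rate is 1 minus that value. Cells were human PBMCs exposed to compound at 50 nM and 500 nM for 24 hours.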

[2] = target: T2, CK1α (Homo sapiens, UniProt P48729+Q96SW2); test: Western blot degradation of CK1α in hPBMCs (24 h)
T2 construct: The supernatant was aspirated as the extracted total cell protein; endogenous in cells; host or cells: human peripheral blood mononuclear cells (hPBMCs)
T2 sequence (P48729 whole entry): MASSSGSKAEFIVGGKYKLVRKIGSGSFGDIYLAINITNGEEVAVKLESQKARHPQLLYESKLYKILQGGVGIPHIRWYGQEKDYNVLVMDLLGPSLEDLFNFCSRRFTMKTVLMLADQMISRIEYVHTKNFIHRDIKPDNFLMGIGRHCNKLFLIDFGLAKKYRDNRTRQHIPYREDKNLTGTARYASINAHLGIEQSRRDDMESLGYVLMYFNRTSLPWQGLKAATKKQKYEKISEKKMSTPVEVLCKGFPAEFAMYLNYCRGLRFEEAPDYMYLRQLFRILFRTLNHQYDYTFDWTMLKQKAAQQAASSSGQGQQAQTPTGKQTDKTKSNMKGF
T2 sequence (Q96SW2 whole entry): as the sequence (Q96SW2 whole entry) above
T2 sequence (Q16531 whole entry partner): as the sequence (Q16531 whole entry partner) above
Method in brief: as §1

[3] = target: T3, WEE1 (Homo sapiens, UniProt P30291+Q96SW2); test: Western blot degradation of WEE1 in hPBMCs (24 h)
T3 construct: The supernatant was aspirated as the extracted total cell protein; endogenous in cells; host or cells: human peripheral blood mononuclear cells (hPBMCs)
Method in brief: as §1

[4] = target: T4, GSPT1 (Homo sapiens, UniProt P15170+Q96SW2); test: Western blot degradation of GSPT1 in hPBMCs (24 h)
T4 construct: The supernatant was aspirated as the extracted total cell protein; endogenous in cells; host or cells: human peripheral blood mononuclear cells (hPBMCs)
T4 sequence (P15170 whole entry): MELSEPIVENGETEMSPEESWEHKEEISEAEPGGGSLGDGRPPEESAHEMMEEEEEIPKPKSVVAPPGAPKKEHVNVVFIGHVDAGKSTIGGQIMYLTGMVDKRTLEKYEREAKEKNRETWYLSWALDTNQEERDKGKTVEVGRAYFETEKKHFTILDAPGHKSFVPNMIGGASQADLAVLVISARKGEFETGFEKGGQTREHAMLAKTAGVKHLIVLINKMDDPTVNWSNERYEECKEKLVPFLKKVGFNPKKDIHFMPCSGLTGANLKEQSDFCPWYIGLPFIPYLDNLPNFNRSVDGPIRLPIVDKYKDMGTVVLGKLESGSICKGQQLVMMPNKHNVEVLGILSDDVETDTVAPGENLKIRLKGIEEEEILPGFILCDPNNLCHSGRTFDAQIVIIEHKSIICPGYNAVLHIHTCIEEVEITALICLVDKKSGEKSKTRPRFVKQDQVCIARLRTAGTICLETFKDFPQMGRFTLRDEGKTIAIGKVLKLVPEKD
T4 sequence (Q96SW2 whole entry): as the sequence (Q96SW2 whole entry) above
T4 sequence (Q16531 whole entry partner): as the sequence (Q16531 whole entry partner) above
Method in brief: as §1

[5] = target: T5, IKZF2 (Homo sapiens, UniProt Q96SW2+Q9UKS7); test: Western blot degradation of IKZF2 in hPBMCs (24 h)
T5 construct: The supernatant was aspirated as the extracted total cell protein; endogenous in cells; host or cells: human peripheral blood mononuclear cells (hPBMCs)
T5 sequence (Q9UKS7 whole entry): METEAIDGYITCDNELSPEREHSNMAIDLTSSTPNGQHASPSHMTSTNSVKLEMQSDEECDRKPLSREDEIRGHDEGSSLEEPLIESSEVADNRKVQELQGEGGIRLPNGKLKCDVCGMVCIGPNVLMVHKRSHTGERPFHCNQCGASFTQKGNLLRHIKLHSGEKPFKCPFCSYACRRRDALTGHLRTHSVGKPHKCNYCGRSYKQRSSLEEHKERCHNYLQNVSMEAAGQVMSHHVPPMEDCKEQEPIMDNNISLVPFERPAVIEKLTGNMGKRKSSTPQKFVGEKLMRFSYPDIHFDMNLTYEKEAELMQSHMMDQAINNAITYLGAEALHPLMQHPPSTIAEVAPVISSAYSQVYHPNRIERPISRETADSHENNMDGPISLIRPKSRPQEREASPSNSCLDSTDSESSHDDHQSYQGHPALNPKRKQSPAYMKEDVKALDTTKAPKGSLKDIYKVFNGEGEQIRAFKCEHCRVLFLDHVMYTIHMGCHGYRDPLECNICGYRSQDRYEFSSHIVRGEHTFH
T5 sequence (Q96SW2 whole entry): as the sequence (Q96SW2 whole entry) above
T5 sequence (Q16531 whole entry partner): as the sequence (Q16531 whole entry partner) above
Method in brief: as §1

[6] = target: T6, IKZF3 (Homo sapiens, UniProt Q96SW2+Q9UKT9); test: Western blot degradation of IKZF3 in hPBMCs (24 h)
T6 construct: The supernatant was aspirated as the extracted total cell protein; endogenous in cells; host or cells: human peripheral blood mononuclear cells (hPBMCs)
T6 sequence (Q9UKT9 whole entry): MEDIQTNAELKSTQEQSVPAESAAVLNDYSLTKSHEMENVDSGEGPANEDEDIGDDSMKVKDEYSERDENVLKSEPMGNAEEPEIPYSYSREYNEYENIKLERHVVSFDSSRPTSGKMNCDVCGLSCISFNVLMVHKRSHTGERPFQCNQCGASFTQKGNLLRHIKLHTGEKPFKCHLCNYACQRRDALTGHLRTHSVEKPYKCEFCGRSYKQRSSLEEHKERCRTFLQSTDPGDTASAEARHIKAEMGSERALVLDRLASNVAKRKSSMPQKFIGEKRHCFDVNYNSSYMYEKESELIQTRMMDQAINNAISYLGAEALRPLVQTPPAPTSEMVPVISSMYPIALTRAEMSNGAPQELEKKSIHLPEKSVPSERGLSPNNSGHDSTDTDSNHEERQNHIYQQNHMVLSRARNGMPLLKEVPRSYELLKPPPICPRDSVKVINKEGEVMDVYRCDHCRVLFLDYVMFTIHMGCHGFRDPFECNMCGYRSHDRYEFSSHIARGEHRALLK
T6 sequence (Q96SW2 whole entry): as the sequence (Q96SW2 whole entry) above
T6 sequence (Q16531 whole entry partner): as the sequence (Q16531 whole entry partner) above
Method in brief: as §1

SMILES	IKZF1 substrate protein remaining % [1]	CK1α substrate protein remaining % [2]	WEE1 substrate protein remaining % [3]	GSPT1 substrate protein remaining % [4]	IKZF2 substrate protein remaining % [5]	IKZF3 substrate protein remaining % [6]
O=C1CCN(N2C(=O)c3ccc(CN4CCN(c5noc6cc(F)ccc56)CC4)cc3C2=O)C(=O)N1 [GT-07524, 2-(2,4-dioxotetrahydropyrimidin-1(2H)-yl)-5-((4-(6-fluorobenzo[d]isoxazol-3-yl)piperazin-1-yl)methyl)isoindoline-1,3-dione]	A (0% ≤ substrate protein remaining % ≤80%)	B (80%< substrate protein remaining % ≤100%)	A (0% ≤ substrate protein remaining % ≤80%)	A (0% ≤ substrate protein remaining % ≤80%)	A (0% ≤ substrate protein remaining % ≤80%)	B (80%< substrate protein remaining % ≤100%)
O=C1CCN(N2C(=O)c3ccc(CN4CCN(c5noc6ccncc56)CC4)cc3C2=O)C(=O)N1 [GT-07525, 2-(2,4-dioxotetrahydropyrimidin-1(2H)-yl)-5-((4-(isoxazolo[4,5-c]pyridin-3-yl)piperazin-1-yl)methyl)isoindoline-1,3-dione]	B (80%< substrate protein remaining % ≤100%)	A (0% ≤ substrate protein remaining % ≤80%)	B (80%< substrate protein remaining % ≤100%)	A (0% ≤ substrate protein remaining % ≤80%)	B (80%< substrate protein remaining % ≤100%)	B (80%< substrate protein remaining % ≤100%)
O=C1CCN(N2C(=O)c3ccc(CN4CCN(c5nsc6cc(F)ccc56)CC4)cc3C2=O)C(=O)N1 [GT-07526, 2-(2,4-dioxotetrahydropyrimidin-1(2H)-yl)-5-((4-(6-fluorobenzo[d]isothiazol-3-yl)piperazin-1-yl)methyl)isoindoline-1,3-dione]	B (80%< substrate protein remaining % ≤100%)	A (0% ≤ substrate protein remaining % ≤80%)	B (80%< substrate protein remaining % ≤100%)	A (0% ≤ substrate protein remaining % ≤80%)	B (80%< substrate protein remaining % ≤100%)	B (80%< substrate protein remaining % ≤100%)
O=C1CCN(N2C(=O)c3ccc(CN4CCN(c5n[nH]c6cc(F)ccc56)CC4)cc3C2=O)C(=O)N1 [GT-07527, 2-(2,4-dioxotetrahydropyrimidin-1(2H)-yl)-5-((4-(6-fluoro-1H-indazol-3-yl)piperazin-1-yl)methyl)isoindoline-1,3-dione]	B (80%< substrate protein remaining % ≤100%)	A (0% ≤ substrate protein remaining % ≤80%)	B (80%< substrate protein remaining % ≤100%)	A (0% ≤ substrate protein remaining % ≤80%)	B (80%< substrate protein remaining % ≤100%)	B (80%< substrate protein remaining % ≤100%)
O=C1CCN(N2C(=O)c3ccc(CN4CCN(c5c[nH]c6ncccc56)CC4)cc3C2=O)C(=O)N1 [GT-07528, 5-((4-(1H-pyrrolo[2,3-b]pyridin-3-yl)piperazin-1-yl)methyl)-2-(2,4-dioxotetrahydropyrimidin-1(2H)-yl)isoindoline-1,3-dione]	B (80%< substrate protein remaining % ≤100%)	A (0% ≤ substrate protein remaining % ≤80%)	B (80%< substrate protein remaining % ≤100%)	A (0% ≤ substrate protein remaining % ≤80%)	B (80%< substrate protein remaining % ≤100%)	B (80%< substrate protein remaining % ≤100%)
